Holding throughout (type): biochemical
One test concerns the target T1, Human Tyk2 kinase domain (Homo sapiens, UniProt P29597).
T1 construct: comprising amino acids 886 to 1187 with 10 additional histidine residues; 10xHis (histidine tag) (C, cleaved yes); made in house
T1 sequence (P29597 886-1187): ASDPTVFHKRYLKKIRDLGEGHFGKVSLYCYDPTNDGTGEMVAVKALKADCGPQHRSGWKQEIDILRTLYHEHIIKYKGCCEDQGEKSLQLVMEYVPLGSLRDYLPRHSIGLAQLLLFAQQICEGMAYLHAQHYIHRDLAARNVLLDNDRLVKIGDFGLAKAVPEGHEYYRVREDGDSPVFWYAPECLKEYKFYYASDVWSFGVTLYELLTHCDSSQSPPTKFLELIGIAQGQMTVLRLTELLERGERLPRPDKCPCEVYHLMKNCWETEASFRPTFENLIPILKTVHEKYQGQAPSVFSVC
Description: Tyk2 Inhibition Assay (Omnia kinase fluorescence peptide substrate assay). To be noted: averaged IC50 ranges; assay of Example A; 10 μM (Km app) or 1 mM ATP, 2 nM Tyk2. An outline of the steps:
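2 nM His-tag-cleaved kinase domain (aa 886–1187) with 8 μM Omnia Y12 peptide, 10 μM (Km app) or 1 mM ATP, pH 7.4 HEPES/10 mM MgCl2, 2% DMSO. Fluorescence (ex 360/em 485 nm) every 50 s for 45 min; IC50 from 4-parameter fit of POC, top dose 10 μM.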

For the next test, the target named is T2, JAK2 (Homo sapiens, UniProt O60674).
T2 construct: purchased Invitrogen Corporation, Carlsbad, Calif; PV4288
Description: JAK2 Inhibition Assay (Omnia kinase fluorescence peptide substrate assay). The settings on record: averaged IC50 ranges; assay of Example C; 25 μM (Km app) or 1 mM ATP, 5 nM JAK2. Put shortly: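 5 nM JAK2 phosphorylated 10 μM Omnia Y7 peptide with ATP at 25 μM (Km app) or 1 mM, in 25 mM HEPES pH 7.4, 10 mM MgCl2, 0.01% Triton X-100, 1 mM DTT, 2% DMSO. Fluorescence (360/485 nm) was read every 50 s for 45 min. 10-point 3-fold series from 10 μM; POC versus uninhibited and background controls, 4-parameter logistic IC50.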

For the next test, the target named is T3, JAK1 (Homo sapiens, UniProt P23458).
T3 construct: purchased Invitrogen Corporation, Carlsbad, Calif; PV4775
Description: JAK1 Inhibition Assay (Omnia kinase fluorescence peptide substrate assay). To be noted: averaged IC50 ranges; assay of Example B; 40 μM (Km app) or 1 mM ATP, 15 nM JAK1.

In the next test the target is T4, JAK3 (Homo sapiens, UniProt P52333).
T4 construct: purchased Invitrogen Corporation, Carlsbad, Calif; PV4080
T4 sequence (P52333 1-1124): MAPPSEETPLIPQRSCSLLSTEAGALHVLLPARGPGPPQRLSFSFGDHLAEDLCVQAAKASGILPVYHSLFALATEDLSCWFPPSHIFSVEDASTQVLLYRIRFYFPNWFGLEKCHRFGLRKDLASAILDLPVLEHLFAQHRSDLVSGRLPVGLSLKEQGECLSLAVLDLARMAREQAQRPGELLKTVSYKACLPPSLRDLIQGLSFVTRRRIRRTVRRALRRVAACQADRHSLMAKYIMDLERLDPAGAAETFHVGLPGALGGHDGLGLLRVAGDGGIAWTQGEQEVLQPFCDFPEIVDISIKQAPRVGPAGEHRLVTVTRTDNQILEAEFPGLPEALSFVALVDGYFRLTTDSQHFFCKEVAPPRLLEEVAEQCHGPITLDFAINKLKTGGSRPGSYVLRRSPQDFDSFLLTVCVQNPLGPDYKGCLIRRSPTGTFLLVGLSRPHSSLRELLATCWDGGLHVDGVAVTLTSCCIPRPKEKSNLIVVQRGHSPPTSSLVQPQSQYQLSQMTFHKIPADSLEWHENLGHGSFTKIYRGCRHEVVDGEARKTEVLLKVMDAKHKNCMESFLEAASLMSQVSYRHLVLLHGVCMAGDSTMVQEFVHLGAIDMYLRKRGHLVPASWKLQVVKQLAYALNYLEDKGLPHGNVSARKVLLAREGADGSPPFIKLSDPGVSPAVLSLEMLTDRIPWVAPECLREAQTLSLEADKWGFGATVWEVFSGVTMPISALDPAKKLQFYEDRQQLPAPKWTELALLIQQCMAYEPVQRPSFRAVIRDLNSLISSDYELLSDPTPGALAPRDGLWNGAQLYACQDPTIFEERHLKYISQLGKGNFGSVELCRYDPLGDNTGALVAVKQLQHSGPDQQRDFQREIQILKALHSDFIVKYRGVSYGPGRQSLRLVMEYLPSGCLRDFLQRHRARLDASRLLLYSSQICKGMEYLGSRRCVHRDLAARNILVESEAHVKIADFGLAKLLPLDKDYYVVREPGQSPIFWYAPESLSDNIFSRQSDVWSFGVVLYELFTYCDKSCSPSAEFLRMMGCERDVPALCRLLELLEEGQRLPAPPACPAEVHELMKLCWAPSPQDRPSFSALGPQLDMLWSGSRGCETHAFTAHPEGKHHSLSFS
The test can be described thus: JAK3 Inhibition Assay (Omnia kinase fluorescence peptide substrate assay). To be noted: averaged IC50 ranges; assay of Example D; 10 μM (Km app) or 1 mM ATP, 2.5 nM JAK3. Put shortly: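 Kinase at 2.5 nM with 10 µM Omnia Y7 peptide and 10 µM (Km app) or 1 mM ATP in 25 mM HEPES pH 7.4, 10 mM MgCl2, 1 mM DTT, 0.01% Triton X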

T2 sequence (O60674 whole entry): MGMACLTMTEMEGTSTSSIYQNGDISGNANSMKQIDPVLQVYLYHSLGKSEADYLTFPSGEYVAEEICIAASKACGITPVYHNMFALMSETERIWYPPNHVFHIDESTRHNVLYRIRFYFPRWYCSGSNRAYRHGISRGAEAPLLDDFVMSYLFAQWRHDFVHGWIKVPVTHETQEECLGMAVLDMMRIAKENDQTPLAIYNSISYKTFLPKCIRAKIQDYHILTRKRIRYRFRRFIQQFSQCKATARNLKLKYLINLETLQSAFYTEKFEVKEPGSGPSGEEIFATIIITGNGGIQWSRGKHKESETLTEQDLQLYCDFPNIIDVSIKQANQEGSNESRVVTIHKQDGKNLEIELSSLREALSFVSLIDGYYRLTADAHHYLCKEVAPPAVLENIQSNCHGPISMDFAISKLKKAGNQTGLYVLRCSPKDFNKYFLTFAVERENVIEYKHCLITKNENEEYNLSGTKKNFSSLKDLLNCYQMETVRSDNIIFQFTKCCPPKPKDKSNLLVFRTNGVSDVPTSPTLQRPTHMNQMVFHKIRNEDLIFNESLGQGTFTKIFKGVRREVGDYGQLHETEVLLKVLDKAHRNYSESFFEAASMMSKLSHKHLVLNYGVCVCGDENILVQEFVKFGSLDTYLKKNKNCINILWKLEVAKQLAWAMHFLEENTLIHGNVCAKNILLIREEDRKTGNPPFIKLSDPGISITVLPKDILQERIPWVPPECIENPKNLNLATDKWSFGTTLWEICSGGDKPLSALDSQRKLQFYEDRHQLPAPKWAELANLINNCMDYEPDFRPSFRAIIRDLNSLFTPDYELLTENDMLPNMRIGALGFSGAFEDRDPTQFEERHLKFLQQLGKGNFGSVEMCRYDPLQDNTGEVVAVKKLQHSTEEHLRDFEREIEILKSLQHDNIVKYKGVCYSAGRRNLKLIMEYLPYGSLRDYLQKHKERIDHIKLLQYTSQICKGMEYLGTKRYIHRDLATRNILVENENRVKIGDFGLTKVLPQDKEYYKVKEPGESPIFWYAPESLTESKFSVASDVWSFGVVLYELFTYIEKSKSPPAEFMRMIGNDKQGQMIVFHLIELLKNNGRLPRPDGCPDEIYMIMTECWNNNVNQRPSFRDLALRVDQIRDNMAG
T3 sequence (P23458 whole entry): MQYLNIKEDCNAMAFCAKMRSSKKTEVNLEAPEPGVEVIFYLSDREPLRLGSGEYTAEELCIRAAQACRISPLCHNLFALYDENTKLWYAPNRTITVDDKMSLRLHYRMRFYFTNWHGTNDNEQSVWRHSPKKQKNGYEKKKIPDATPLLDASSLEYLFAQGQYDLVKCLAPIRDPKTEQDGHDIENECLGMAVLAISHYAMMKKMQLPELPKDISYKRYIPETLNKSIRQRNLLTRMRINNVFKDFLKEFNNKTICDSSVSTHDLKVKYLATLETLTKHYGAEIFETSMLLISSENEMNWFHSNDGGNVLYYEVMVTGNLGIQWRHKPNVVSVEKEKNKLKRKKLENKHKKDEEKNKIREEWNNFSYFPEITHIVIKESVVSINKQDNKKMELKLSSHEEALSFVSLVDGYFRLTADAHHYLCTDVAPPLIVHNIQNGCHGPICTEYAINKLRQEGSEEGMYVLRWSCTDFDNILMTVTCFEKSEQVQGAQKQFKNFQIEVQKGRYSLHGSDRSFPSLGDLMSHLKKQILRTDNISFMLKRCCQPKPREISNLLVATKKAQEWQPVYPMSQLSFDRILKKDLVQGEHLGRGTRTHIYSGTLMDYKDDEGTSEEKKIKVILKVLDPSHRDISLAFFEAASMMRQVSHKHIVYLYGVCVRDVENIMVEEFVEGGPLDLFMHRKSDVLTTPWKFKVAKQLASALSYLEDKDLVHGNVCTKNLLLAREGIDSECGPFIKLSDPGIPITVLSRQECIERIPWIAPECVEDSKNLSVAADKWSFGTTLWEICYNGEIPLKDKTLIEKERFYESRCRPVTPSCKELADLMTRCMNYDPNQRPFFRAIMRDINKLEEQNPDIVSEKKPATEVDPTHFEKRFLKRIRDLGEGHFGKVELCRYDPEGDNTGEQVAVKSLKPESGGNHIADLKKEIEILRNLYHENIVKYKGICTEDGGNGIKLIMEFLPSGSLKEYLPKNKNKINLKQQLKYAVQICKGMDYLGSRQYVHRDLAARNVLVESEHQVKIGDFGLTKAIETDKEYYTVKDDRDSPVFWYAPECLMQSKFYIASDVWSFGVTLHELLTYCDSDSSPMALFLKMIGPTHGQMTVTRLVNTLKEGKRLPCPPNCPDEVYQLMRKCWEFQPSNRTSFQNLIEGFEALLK

The term IC50 denotes the concentration that gives 50% inhibition. As to `Cn1cc(-c2cc3nccn3c(-c3cnn(C4(CC#N)CN(CC(F)F)C4)c3)n2)cn1` [Example 69, 2-(1-(2,2-dDifluoroethyl)-3-(4-(7-(1-methyl-1H-pyrazol-4-yl)imidazo[1,2-c]pyrimidin-5-yl)-1H-pyrazol-1-yl)azetidin-3-yl)acetonitrile], the half-inhibitory concentration (IC50) is below 10 nM on Human Tyk2 kinase domain, 10 to 100 nM against JAK2, 100 to 1000 nM at JAK1 and above 1000 nM at JAK3.

For the molecule `Cn1cc(-c2cc3nccn3c(-c3cnn(C4(CC#N)CN(CC(F)(F)C(F)(F)F)C4)c3)n2)cn1` [Example 70, 2-(3-(4-(7-(1-Methyl-1H-pyrazol-4-yl)imidazo[1,2-c]pyrimidin-5-yl)-1H-pyrazol-1-yl)-1-(2,2,3,3,3-pentafluoropropyl)azetidin-3-yl)acetonitrile], the IC50 is below 10 nM against Human Tyk2 kinase domain, 10 to 100 nM on JAK2, 10 to 100 nM on JAK1 and 100 to 1000 nM against JAK3.

In the case of `Cn1cc(-c2cc3nccn3c(-c3cnn(C4(CC#N)CN(CC(F)(F)F)C4)c3)n2)cn1` [Example 71, 2-(3-(4-(7-(1-methyl-1H-pyrazol-4-yl)imidazo[1,2-c]pyrimidin-5-yl)-1H-pyrazol-1-yl)-1-(2,2,2-trifluoroethyl)azetidin-3-yl)acetonitrile], the concentration for half-maximal inhibition (IC50) against Human Tyk2 kinase domain was below 10 nM; against JAK2, 10 to 100 nM; against JAK1, 100 to 1000 nM; against JAK3, above 1000 nM.

In the case of `CCN1CC(CC#N)(n2cc(-c3nc(-c4cnn(C)c4)cc4nccn34)cn2)C1` [Example 72, 2-(1-ethyl-3-(4-(7-(1-methyl-1H-pyrazol-4-yl)imidazo[1,2-c]pyrimidin-5-yl)-1H-pyrazol-1-yl)azetidin-3-yl)acetonitrile], the half-maximal inhibitory concentration (IC50) is 10 to 100 nM on Human Tyk2 kinase domain, 100 to 1000 nM at JAK2, above 1000 nM against JAK1 and above 1000 nM on JAK3.

`Cn1cc(-c2cc3nccn3c(-c3cnn(C4(CC#N)CN(CC#N)C4)c3)n2)cn1` [Example 73, 2,2′-(3-(4-(7-(1-methyl-1H-pyrazol-4-yl)imidazo[1,2-c]pyrimidin-5-yl)-1H-pyrazol-1-yl)azetidine-1,3-diyl)diacetonitrile]: the concentration for half-maximal inhibition (IC50) against Human Tyk2 kinase domain is below 10 nM; on JAK2 it was 10 to 100 nM; against JAK1, 100 to 1000 nM; at JAK3 it was above 1000 nM.

Take `Cn1cc(-c2cc3nccn3c(-c3cnn(C4(CC#N)CN(CCCF)C4)c3)n2)cn1` [Example 74, 2-(1-(3-fluoropropyl)-3-(4-(7-(1-methyl-1H-pyrazol-4-yl)imidazo[1,2-c]pyrimidin-5-yl)-1H-pyrazol-1-yl)azetidin-3-yl)acetonitrile]: the IC50 at Human Tyk2 kinase domain was below 10 nM; on JAK2 it was 100 to 1000 nM; at JAK1 it was 100 to 1000 nM; against JAK3, above 1000 nM.

On to `CC#CCN1CC(CC#N)(n2cc(-c3nc(-c4cnn(C)c4)cc4nccn34)cn2)C1` [Example 75, 2-(1-(but-2-ynyl)-3-(4-(7-(1-methyl-1H-pyrazol-4-yl)imidazo[1,2-c]pyrimidin-5-yl)-1H-pyrdzol-1-yl)azetidin-3-yl)acetonitrile], for which the half-inhibitory concentration (IC50) against Human Tyk2 kinase domain was 100 to 1000 nM; against JAK2, above 1000 nM; against JAK1, above 1000 nM; at JAK3, above 1000 nM.

Take `C#CCN1CC(CC#N)(n2cc(-c3nc(-c4cnn(C)c4)cc4nccn34)cn2)C1` [Example 76, 2-(3-(4-(7-(1-methyl-1H-pyrazol-4-yl)imidazo[1,2-c]pyrimidin-5-yl)-1H-pyrazol-1-yl)-1-(prop-2-ynyl)azetidin-3-yl)acetonitrile]: the 50% inhibitory concentration (IC50) against Human Tyk2 kinase domain is 10 to 100 nM; against JAK2 it was 100 to 1000 nM; against JAK1, 100 to 1000 nM; against JAK3 it was above 1000 nM.

For the molecule `Cn1cc(-c2cc3nccn3c(-c3cnn(C4(CC#N)CN(CCF)C4)c3)n2)cn1` [Example 77, 2-(1-(2-fluoroethyl)-3-(4-(7-(1-methyl-1H-pyrazol-4-yl)imidazo[1,2-c]pyrimidin-5-yl)-1H-pyrazol-1-yl)azetidin-3-yl)acetonitrile], the IC50 on Human Tyk2 kinase domain is below 10 nM; on JAK2, 10 to 100 nM; against JAK1 it was 100 to 1000 nM; at JAK3, above 1000 nM.

Take `Cn1cc(-c2cc3nccn3c(-c3cnn(C4(CC#N)CN(CCC#N)C4)c3)n2)cn1` [Example 78, 3-(3-(cyanomethyl)-3-(4-(7-(1-methyl-1H-pyrazol-4-yl)imidazo[1,2-c]pyrimidin-5-yl)-1H-pyrazol-1-yl)azetidin-1-yl)propanenitrile]: the IC50 against Human Tyk2 kinase domain was 10 to 100 nM; at JAK2, 100 to 1000 nM; against JAK1 it was 100 to 1000 nM; on JAK3, above 1000 nM.

As to `Cn1cc(-c2cc3nccn3c(-c3cnn(C4(CC#N)CN(C(CF)CF)C4)c3)n2)cn1` [Example 79, 2-(1-(1,3-difluoropropan-2-yl)-3-(4-(7-(1-methyl-1H-pyrazol-4-yl)imidazo[1,2-c]pyrimidin-5-yl)-1H-pyrazol-1-yl)azetidin-3-yl)acetonitrile], the IC50 at Human Tyk2 kinase domain is 10 to 100 nM; on JAK2, 100 to 1000 nM; against JAK1, above 1000 nM; against JAK3, above 1000 nM.

With `Cn1cc(-c2cc3nccn3c(-c3cnn(C4(CC#N)CN(CC(F)(F)C(F)F)C4)c3)n2)cn1` [Example 80, 2-(3-(4-(7-(1-methyl-1H-pyrazol-4-yl)imidazo[1,2-c]pyrimidin-5-yl)-1H-pyrazol-1-yl)-1-(2,2,3,3-tetrafluoropropyl)azetidin-3-yl)acetonitrile], the 50% inhibitory concentration (IC50) is below 10 nM against Human Tyk2 kinase domain, 10 to 100 nM against JAK2, 100 to 1000 nM against JAK1 and above 1000 nM on JAK3.

On to `CCCN1CC(CC#N)(n2cc(-c3nc(-c4cnn(C)c4)cc4nccn34)cn2)C1` [Example 81, 2-(3-(4-(7-(1-methyl-1H-pyrazol-4-yl)imidazo[1,2-c]pyrimidin-5-yl)-1H-pyrazol-1-yl)-1-propylazetidin-3-yl)acetonitrile], for which the IC50 against Human Tyk2 kinase domain was 10 to 100 nM; against JAK2 it was 100 to 1000 nM; at JAK1 it was 100 to 1000 nM; against JAK3, above 1000 nM.

In the case of `CC(C)N1CC(CC#N)(n2cc(-c3nc(-c4cnn(C)c4)cc4nccn34)cn2)C1` [Example 82, 2-(1-isopropyl-3-(4-(7-(1-methyl-1H-pyrazol-4-yl)imidazo[1,2-c]pyrimidin-5-yl)-1H-pyrazol-1-yl)azetidin-3-yl)acetonitrile], the half-inhibitory concentration (IC50) against Human Tyk2 kinase domain was 10 to 100 nM; on JAK2, 100 to 1000 nM; against JAK1, above 1000 nM; on JAK3, above 1000 nM.

These data come from patent US8962596B2 (Array BioPharma Inc., priority 2010, dated 2015).
